In US20260356819A1, “OXOISOINDOLINYL-SUBSTITUTED […] DERIVATIVE AND USE THEREOF” (GLUETACS THERAPEUTICS (SHANGHAI) CO., LTD., priority 2023, published 2026):

Tests used:
Type in all cases: cell-based
Settings in all cases: compounds at 50 nM and 500 nM
IKZF3 = molecular target: T1, IKZF3 (Homo sapiens, UniProt Q96SW2+Q9UKT9); assay: Western blot degradation of IKZF3 in hPBMCs (24 h)
T1 construct: The supernatant was aspirated as the extracted total cell protein; endogenous in cells; host or cells: human peripheral blood mononuclear cells (hPBMCs)
Method in brief: (§1)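 Thawed human PBMCs, 1×10^6 cells/mL; cpd 50 nM or 500 nM, 24 h; RIPA lysis, BCA, SDS-PAGE, NC transfer, immunoblot. Readout: grayscale/internal control → % remaining; degradation = 1 − remaining.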

CK1α = molecular target: T2, CK1α (Homo sapiens, UniProt P48729+Q96SW2); assay: Western blot degradation of CK1α in hPBMCs (24 h)
T2 construct: The supernatant was aspirated as the extracted total cell protein; endogenous in cells; host or cells: human peripheral blood mononuclear cells (hPBMCs)
Method in brief: as §1

IKZF2 = molecular target: T3, IKZF2 (Homo sapiens, UniProt Q96SW2+Q9UKS7); assay: Western blot degradation of IKZF2 in hPBMCs (24 h)
T3 construct: The supernatant was aspirated as the extracted total cell protein; endogenous in cells; host or cells: human peripheral blood mononuclear cells (hPBMCs)
Method in brief: as §1

WEE1 = molecular target: T4, WEE1 (Homo sapiens, UniProt P30291+Q96SW2); assay: Western blot degradation of WEE1 in hPBMCs (24 h)
T4 construct: The supernatant was aspirated as the extracted total cell protein; endogenous in cells; host or cells: human peripheral blood mononuclear cells (hPBMCs)
Method in brief: as §1

GSPT1 = molecular target: T5, GSPT1 (Homo sapiens, UniProt P15170+Q96SW2); assay: Western blot degradation of GSPT1 in hPBMCs (24 h)
T5 construct: The supernatant was aspirated as the extracted total cell protein; endogenous in cells; host or cells: human peripheral blood mononuclear cells (hPBMCs)
Method in brief: as §1

IKZF1 = molecular target: T6, IKZF1 (Homo sapiens, UniProt Q13422+Q96SW2); assay: Western blot degradation of IKZF1 in hPBMCs (24 h)
T6 construct: The supernatant was aspirated as the extracted total cell protein; endogenous in cells; host or cells: human peripheral blood mononuclear cells (hPBMCs)
Method in brief: as §1

T6 sequence (Q13422 whole entry): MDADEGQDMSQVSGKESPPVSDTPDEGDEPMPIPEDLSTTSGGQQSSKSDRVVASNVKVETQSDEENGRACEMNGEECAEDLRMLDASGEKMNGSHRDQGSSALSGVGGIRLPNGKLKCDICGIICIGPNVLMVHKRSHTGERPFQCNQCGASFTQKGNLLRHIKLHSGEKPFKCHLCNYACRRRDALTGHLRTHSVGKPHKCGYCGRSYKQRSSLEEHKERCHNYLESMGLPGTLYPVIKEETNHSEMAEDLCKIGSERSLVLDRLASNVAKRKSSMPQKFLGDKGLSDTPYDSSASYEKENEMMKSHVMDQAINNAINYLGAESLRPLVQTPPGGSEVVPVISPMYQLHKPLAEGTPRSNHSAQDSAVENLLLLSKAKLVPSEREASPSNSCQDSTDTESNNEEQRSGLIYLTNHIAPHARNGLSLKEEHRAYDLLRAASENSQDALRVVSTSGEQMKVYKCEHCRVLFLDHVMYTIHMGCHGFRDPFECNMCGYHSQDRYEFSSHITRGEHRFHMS
T6 sequence (Q96SW2 whole entry): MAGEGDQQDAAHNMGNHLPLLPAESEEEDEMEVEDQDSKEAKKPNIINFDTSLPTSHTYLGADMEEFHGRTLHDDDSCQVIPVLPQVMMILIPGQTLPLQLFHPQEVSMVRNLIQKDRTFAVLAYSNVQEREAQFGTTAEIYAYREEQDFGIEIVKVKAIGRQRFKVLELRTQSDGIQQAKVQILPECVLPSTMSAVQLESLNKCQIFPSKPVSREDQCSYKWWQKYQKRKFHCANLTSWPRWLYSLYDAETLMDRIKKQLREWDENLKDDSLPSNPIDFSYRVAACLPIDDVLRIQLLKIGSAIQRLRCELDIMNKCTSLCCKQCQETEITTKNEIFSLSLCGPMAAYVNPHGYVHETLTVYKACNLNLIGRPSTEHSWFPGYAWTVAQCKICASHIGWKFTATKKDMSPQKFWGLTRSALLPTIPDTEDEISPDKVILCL
T6 sequence (Q16531 whole entry partner): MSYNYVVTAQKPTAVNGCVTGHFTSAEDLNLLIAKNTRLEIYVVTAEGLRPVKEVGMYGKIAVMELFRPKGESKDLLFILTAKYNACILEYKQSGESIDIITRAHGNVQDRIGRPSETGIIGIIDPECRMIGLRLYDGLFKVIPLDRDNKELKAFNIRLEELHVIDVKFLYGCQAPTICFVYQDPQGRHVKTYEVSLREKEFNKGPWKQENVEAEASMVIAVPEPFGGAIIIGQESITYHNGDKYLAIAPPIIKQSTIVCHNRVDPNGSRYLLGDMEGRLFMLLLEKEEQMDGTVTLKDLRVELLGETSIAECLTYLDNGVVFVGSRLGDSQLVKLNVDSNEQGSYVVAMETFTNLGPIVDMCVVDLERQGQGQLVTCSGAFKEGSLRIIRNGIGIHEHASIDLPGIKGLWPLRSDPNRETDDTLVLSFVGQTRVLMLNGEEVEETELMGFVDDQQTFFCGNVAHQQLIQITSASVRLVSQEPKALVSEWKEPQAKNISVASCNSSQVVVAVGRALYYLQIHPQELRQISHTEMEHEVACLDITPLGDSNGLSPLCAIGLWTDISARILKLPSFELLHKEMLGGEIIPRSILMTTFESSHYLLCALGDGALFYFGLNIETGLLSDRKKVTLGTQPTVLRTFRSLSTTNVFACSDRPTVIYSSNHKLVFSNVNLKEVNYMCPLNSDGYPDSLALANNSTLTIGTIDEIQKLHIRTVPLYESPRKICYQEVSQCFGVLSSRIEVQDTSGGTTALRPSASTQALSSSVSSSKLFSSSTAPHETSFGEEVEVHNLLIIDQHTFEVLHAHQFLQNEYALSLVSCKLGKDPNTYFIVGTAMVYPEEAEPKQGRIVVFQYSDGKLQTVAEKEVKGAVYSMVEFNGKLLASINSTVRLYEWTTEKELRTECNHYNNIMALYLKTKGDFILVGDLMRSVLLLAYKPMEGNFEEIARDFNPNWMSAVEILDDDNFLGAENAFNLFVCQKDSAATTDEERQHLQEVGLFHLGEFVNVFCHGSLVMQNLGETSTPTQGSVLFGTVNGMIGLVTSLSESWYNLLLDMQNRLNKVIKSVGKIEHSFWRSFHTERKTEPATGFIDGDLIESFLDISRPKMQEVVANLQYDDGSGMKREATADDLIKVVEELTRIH
T2 sequence (P48729 whole entry): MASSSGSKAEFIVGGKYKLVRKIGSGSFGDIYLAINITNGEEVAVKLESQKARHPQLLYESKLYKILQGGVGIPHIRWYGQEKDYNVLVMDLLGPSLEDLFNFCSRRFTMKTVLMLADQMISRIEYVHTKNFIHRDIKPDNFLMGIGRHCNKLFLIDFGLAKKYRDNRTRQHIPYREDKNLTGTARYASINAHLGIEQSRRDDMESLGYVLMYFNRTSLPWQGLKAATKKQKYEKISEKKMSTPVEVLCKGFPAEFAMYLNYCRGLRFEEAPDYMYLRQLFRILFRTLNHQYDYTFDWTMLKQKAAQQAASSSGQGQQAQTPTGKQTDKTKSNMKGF
T2 sequence (Q96SW2 whole entry): as the sequence (Q96SW2 whole entry) above
T2 sequence (Q16531 whole entry partner): as the sequence (Q16531 whole entry partner) above
T1 sequence (Q9UKT9 whole entry): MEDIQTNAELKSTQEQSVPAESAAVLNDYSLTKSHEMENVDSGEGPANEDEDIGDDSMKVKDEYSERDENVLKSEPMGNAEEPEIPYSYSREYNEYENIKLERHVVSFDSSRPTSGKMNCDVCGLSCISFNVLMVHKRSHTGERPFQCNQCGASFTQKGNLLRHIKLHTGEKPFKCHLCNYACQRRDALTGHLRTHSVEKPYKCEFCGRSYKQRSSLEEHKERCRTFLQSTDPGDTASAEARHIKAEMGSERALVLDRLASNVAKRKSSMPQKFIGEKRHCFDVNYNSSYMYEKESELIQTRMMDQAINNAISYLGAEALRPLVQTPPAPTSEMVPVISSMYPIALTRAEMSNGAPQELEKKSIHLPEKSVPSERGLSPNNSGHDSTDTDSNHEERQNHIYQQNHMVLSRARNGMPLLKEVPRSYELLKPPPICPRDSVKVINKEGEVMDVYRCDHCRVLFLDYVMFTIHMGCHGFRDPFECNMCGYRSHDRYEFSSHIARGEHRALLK
T1 sequence (Q96SW2 whole entry): as the sequence (Q96SW2 whole entry) above
T1 sequence (Q16531 whole entry partner): as the sequence (Q16531 whole entry partner) above
T4 sequence (P30291 whole entry): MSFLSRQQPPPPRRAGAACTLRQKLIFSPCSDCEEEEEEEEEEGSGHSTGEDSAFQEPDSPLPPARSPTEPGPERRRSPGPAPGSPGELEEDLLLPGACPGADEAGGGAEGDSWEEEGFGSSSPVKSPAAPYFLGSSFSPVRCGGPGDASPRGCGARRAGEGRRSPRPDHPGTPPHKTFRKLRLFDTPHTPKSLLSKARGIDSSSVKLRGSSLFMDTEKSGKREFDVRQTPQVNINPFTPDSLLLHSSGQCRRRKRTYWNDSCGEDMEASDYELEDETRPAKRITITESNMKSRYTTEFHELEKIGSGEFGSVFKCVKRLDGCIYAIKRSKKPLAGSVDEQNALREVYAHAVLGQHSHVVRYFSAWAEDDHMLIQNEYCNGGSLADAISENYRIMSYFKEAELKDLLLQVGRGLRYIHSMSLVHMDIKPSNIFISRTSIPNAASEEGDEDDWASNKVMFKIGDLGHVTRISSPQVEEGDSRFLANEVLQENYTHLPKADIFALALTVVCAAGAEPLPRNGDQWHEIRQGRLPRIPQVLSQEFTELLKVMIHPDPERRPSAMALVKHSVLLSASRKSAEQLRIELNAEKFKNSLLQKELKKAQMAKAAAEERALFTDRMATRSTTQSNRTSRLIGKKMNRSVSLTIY
T4 sequence (Q96SW2 whole entry): as the sequence (Q96SW2 whole entry) above
T4 sequence (Q16531 whole entry partner): as the sequence (Q16531 whole entry partner) above
T3 sequence (Q9UKS7 whole entry): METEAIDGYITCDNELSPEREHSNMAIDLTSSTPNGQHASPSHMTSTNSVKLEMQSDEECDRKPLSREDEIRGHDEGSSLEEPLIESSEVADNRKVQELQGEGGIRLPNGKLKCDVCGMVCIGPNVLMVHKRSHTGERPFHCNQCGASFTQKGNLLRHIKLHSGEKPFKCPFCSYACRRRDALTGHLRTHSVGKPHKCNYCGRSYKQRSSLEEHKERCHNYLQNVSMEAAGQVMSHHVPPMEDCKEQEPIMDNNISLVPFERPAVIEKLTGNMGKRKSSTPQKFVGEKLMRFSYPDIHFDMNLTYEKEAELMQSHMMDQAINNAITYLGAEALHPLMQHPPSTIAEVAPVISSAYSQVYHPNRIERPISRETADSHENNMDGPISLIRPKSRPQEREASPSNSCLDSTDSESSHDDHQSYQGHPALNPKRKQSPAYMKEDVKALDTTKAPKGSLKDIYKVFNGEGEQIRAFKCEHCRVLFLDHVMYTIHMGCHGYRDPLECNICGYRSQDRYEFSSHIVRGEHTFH
T3 sequence (Q96SW2 whole entry): as the sequence (Q96SW2 whole entry) above
T3 sequence (Q16531 whole entry partner): as the sequence (Q16531 whole entry partner) above

SMILES	IKZF3 substrate protein remaining % (IKZF3)	CK1α substrate protein remaining % (CK1α)	IKZF2 substrate protein remaining % (IKZF2)	WEE1 substrate protein remaining % (WEE1)	GSPT1 substrate protein remaining % (GSPT1)	IKZF1 substrate protein remaining % (IKZF1)
Cc1nc(C2CCN(Cc3ccc4c(c3)CN(N3CCC(=O)NC3=O)C4=O)CC2)c2c3c(sc2n1)CCCC3 [GT-08089, 1-(5-((4-(2-methyl-5,6,7,8-tetrahydrobenzo[4,5]thieno[2,3-d]pyrimidin-4-yl)piperidin-1-yl)methyl)-1-oxoisoindolin-2-yl)dihydropyrimidine-2,4(1H,3H)-dione]	B (80%< substrate protein remaining % ≤100%)	A (0% ≤ substrate protein remaining % ≤80%)	B (80%< substrate protein remaining % ≤100%)	A (0% ≤ substrate protein remaining % ≤80%)	A (0% ≤ substrate protein remaining % ≤80%)	B (80%< substrate protein remaining % ≤100%)
Cn1cc(C2=CCN(Cc3ccc4c(c3)C(=O)N(N3CCC(=O)NC3=O)C4=O)CC2)c2ccc(F)cc21 [GT-05276, 2-(2,4-dioxotetrahydropyrimidin-1(2H)-yl)-5-((4-(6-fluoro-1-methyl-1H-indol-3-yl)-3,6-dihydropyridin-1(2H)-yl)methyl)isoindoline-1,3-dione]	A (0% ≤ substrate protein remaining % ≤80%)	B (80%< substrate protein remaining % ≤100%)	B (80%< substrate protein remaining % ≤100%)	B (80%< substrate protein remaining % ≤100%)	A (0% ≤ substrate protein remaining % ≤80%)	B (80%< substrate protein remaining % ≤100%)
Cc1cc2c(N3CCN(Cc4ccc5c(c4)CN(N4CCC(=O)NC4=O)C5=O)CC3)ncnc2s1 [GT-08059, 1-(5-((4-(6-methylthieno[2,3-d]pyrimidin-4-yl)piperazin-1-yl)methyl)-1-oxoisoindolin-2-yl)dihydropyrimidine-2,4(1H,3H)-dione]	A (0% ≤ substrate protein remaining % ≤80%)	B (80%< substrate protein remaining % ≤100%)	B (80%< substrate protein remaining % ≤100%)	B (80%< substrate protein remaining % ≤100%)	B (80%< substrate protein remaining % ≤100%)	B (80%< substrate protein remaining % ≤100%)
O=C1CCN(N2Cc3cc(CN4CCN(c5ccc(F)cc5F)CC4)ccc3C2=O)C(=O)N1 [GT-06778, 1-(5-((4-(2,4-difluorophenyl)piperazin-1-yl)methyl)-1-oxoisoindolin-2-yl)dihydropyrimidine-2,4(1H,3H)-dione]	B (80%< substrate protein remaining % ≤100%)	A (0% ≤ substrate protein remaining % ≤80%)	B (80%< substrate protein remaining % ≤100%)	B (80%< substrate protein remaining % ≤100%)	A (0% ≤ substrate protein remaining % ≤80%)	B (80%< substrate protein remaining % ≤100%)
O=C1CCN(N2C(=O)c3ccc(CN4CCN(c5ccc(Cl)nc5)CC4)cc3C2=O)C(=O)N1 [GT-07027, 5-((4-(6-chloropyridin-3-yl)piperazin-1-yl)methyl)-2-(2,4-dioxotetrahydropyrimidin-1(2H)-yl)isoindoline-1,3-dione]	B (80%< substrate protein remaining % ≤100%)	B (80%< substrate protein remaining % ≤100%)	B (80%< substrate protein remaining % ≤100%)	A (0% ≤ substrate protein remaining % ≤80%)	A (0% ≤ substrate protein remaining % ≤80%)	B (80%< substrate protein remaining % ≤100%)
O=C1CCN(N2Cc3cc(CN4CCN(CC5=C(c6ccc(F)cc6)CCCC5)CC4)ccc3C2=O)C(=O)N1 [GT-07297, 1-(5-((4-((4′-fluoro-3,4,5,6-tetrahydro-[1,1′-biphenyl]-2-yl)methyl)piperazin-1-yl)methyl)-1-oxoisoindolin-2-yl)dihydropyrimidine-2,4(1H,3H)-dione]	A (0% ≤ substrate protein remaining % ≤80%)	A (0% ≤ substrate protein remaining % ≤80%)	A (0% ≤ substrate protein remaining % ≤80%)	A (0% ≤ substrate protein remaining % ≤80%)	A (0% ≤ substrate protein remaining % ≤80%)	B (80%< substrate protein remaining % ≤100%)
CC1(C)CCC(CN2CCN(Cc3ccc4c(c3)C(=O)N(N3CCC(=O)NC3=O)C4=O)C(C(F)(F)F)C2)=C(c2ccc(Cl)cc2)C1 (stereo not drawn) [GT-07301, 5-((4-((4′-chloro-5,5-dimethyl-3,4,5,6-tetrahydro-[1,1′-biphenyl]-2-yl)methyl)-2-(trifluoromethyl)piperazin-1-yl)methyl)-2-(2,4-dioxotetrahydropyrimidin-1(2H)-yl)isoindoline-1,3-dione]	B (80%< substrate protein remaining % ≤100%)	B (80%< substrate protein remaining % ≤100%)	B (80%< substrate protein remaining % ≤100%)	B (80%< substrate protein remaining % ≤100%)	A (0% ≤ substrate protein remaining % ≤80%)	B (80%< substrate protein remaining % ≤100%)
O=C1CCN(N2Cc3cc(CN4CCC(c5n[nH]c6cc(F)ccc56)CC4)ccc3C2=O)C(=O)N1 [GT-07508, 1-(5-((4-(6-fluoro-1H-indazol-3-yl)piperidin-1-yl)methyl)-1-oxoisoindolin-2-yl)dihydropyrimidine-2,4(1H,3H)-dione]	B (80%< substrate protein remaining % ≤100%)	A (0% ≤ substrate protein remaining % ≤80%)	A (0% ≤ substrate protein remaining % ≤80%)	A (0% ≤ substrate protein remaining % ≤80%)	A (0% ≤ substrate protein remaining % ≤80%)	A (0% ≤ substrate protein remaining % ≤80%)
O=C1CCN(N2Cc3cc(CN4CCN(c5nsc6ccccc56)CC4)ccc3C2=O)C(=O)N1 [GT-04865, 1-(5-((4-(benzo[d]isothiazol-3-yl)piperazin-1-yl)methyl)-1-oxoisoindolin-2-yl)dihydropyrimidine-2,4(1H,3H)-dione]	B (80%< substrate protein remaining % ≤100%)	B (80%< substrate protein remaining % ≤100%)	B (80%< substrate protein remaining % ≤100%)	B (80%< substrate protein remaining % ≤100%)	A (0% ≤ substrate protein remaining % ≤80%)	A (0% ≤ substrate protein remaining % ≤80%)
CC1(C)CCC(CN2CCN(Cc3ccc4c(c3)C(=O)N(N3CCC(=O)NC3=O)C4=O)CC2)=C(c2ccc(Cl)cc2)C1 [GT-05180, 5-((4-((4′-chloro-5,5-dimethyl-3,4,5,6-tetrahydro-[1,1′-biphenyl]-2-yl)methyl)piperazin-1-yl)methyl)-2-(2,4-dioxotetrahydropyrimidin-1(2H)-yl)isoindoline-1,3-dione]	B (80%< substrate protein remaining % ≤100%)	B (80%< substrate protein remaining % ≤100%)	B (80%< substrate protein remaining % ≤100%)	A (0% ≤ substrate protein remaining % ≤80%)	B (80%< substrate protein remaining % ≤100%)	B (80%< substrate protein remaining % ≤100%)
O=C1CCN(N2C(=O)c3ccc(CN4CCCN(c5cccc(Cl)c5Cl)CC4)cc3C2=O)C(=O)N1 [GT-07439, 5-((4-(2,3-dichlorophenyl)-1,4-diazepan-1-yl)methyl)-2-(2,4-dioxotetrahydropyrimidin-1(2H)-yl)isoindoline-1,3-dione]	B (80%< substrate protein remaining % ≤100%)	A (0% ≤ substrate protein remaining % ≤80%)	B (80%< substrate protein remaining % ≤100%)	B (80%< substrate protein remaining % ≤100%)	A (0% ≤ substrate protein remaining % ≤80%)	B (80%< substrate protein remaining % ≤100%)
